Source: paper PMC5386545, “Madecassic acid, the contributor to the anti-colitis effect of madecassoside, enhances the shift of Th17 toward Treg cells via the PPARγ/AMPK/ACC1 pathway” (Cell Death & Disease, 2017)

Key:
PPARγ [1] = target: T1, PPARγ (Homo sapiens, UniProt P37231); assay: LanthaScreen TR-FRET competitive binding assay
T1 construct: gene PPARG; GST-fused human PPARγ-LBD
T1 sequence (P37231 231-505 limits assumed): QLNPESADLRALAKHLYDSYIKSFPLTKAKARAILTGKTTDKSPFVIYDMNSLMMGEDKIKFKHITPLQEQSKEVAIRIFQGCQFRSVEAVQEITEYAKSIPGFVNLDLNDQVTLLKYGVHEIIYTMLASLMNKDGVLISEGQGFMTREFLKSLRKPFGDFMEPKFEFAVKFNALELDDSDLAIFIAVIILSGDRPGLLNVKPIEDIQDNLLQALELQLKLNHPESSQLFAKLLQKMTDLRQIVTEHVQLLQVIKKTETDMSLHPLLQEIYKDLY

PPARγ [2] = target: T1, PPARγ; assay: LanthaScreen TR-FRET competitive binding assay (reference agonist; value not given)

SMILES | Ki (PPARγ [1]) [nM] | LanthaScreen TR-FRET competitive binding assay (reference agonist); no value prin (PPARγ [2])
C[C@H]1[C@H](C)CC[C@]2(C(=O)O)CC[C@]3(C)C(=CC[C@@H]4[C@@]5(C)C[C@@H](O)[C@H](O)[C@@](C)(CO)[C@@H]5[C@H](O)C[C@]43C)[C@H]12 [madecassic acid] | 1610 | 
CN(CCOc1ccc(CC2SC(=O)NC2=O)cc1)c1ccccn1 (centres unmarked) [rosiglitazone] |  | Madecassic acid or rosiglitazone was cultured with GST-fused human PPARγ-LBD, terbium-labeled anti-GST antibody and a fluorescently labeled PPAR ligand
